No end group written: not given here.

The test system of series [1] is gram-negative bacterial strains, such as E. coli, Salmonella and Pseudomonas aeruginosa. The series can be described thus: MIC/MBC test. The settings on record: gram-negative strains versus Staphylococcus aureus. In kind it is cell-based. On the procedure: The Escherichia coli ATCC 35401, ATCC 35150, ATCC 25922, and SSI 82000, Pseudomonas aeruginosa ATCC 9027 and ATCC 27853, Salmonella ATCC13312 and ATCC9120, Salmonella typhimurium ATCC 14028, and Staphylococcus aureus ATCC 29213 strains were purchased from Guangdong Culture Collection Center. The Escherichia coli W25K strain was isolated from a piglet with diarrhea as described previously. The strains were cultured in LB medium to logarithmic growth period (OD = 0.5) and then were transferred to Mueller-Hinton Broth (MHB) medium for the minimum inhibitory concentration (MIC) or minimum bactericidal concentration (MBC) test.
The MIC test was assessed according to the process of the Clinical and Laboratory Standards Institute. The bacterial strains were diluted with MHB medium, and the concentration was 5 × 10^5 CFU/mL. Then, 180 μL bacterial suspension was transferred to 96-well cell plates. […] Then, the bacteria were cultured at 37 °C for 8 h.

Series [2] has as its system E. coli adherence to IPEC-J2 cells. The series can be described thus: Quantifying adherent bacteria (CFU). The note with it: n = 3. In kind it is cell-based, Escherichia coli. The method, then:
To calculate the number of adherent E. coli, E. coli were cocultured with IPEC-J2 cells in DMEM/high-glucose medium (no penicillin/streptomycin, no FBS). Then, the cells were washed with PBS six times and lysed with 1% Triton X-100 for 20 min at room temperature. Next, 5 μL lysates were plated on MacConkey agar plates overnight. The total number of bacteria was quantified as CFUs.

Series [3] has as its system TNF-α mRNA expression. Put plainly: qPCR of TNF-α mRNA in IPEC-J2 cells cocultured with E. coli. In kind it is cell-based, porcine. The note with it: IPEC-J2 cells after coculture with E. coli, treatment for 48 h, compared to non-treated cells, n = 6. On the procedure:
(§1) Total RNA was extracted using TRIzol reagent according to the manufacturer’s instructions. Concentration and purity of RNA was checked by using a NanoDrop 2000. cDNA was generated from 1 μg total RNA using a First Strand cDNA Synthesis Kit (Thermo Scientific, Waltham, MA, USA). Quantitative PCR (qPCR) was performed to quantify mRNA expression levels of IL-6, IL-8 and TNF-α relative to that of a housekeeping gene, glyceraldehyde-3-phosphate dehydrogenase (GAPDH) by using SYBR Green mix (ABI) according to the manufacturer’s instructions.

The subject of series [4] is IL-6 mRNA expression. The series can be described thus: qPCR of IL-6 mRNA in IPEC-J2 cells cocultured with E. coli. In kind it is cell-based, porcine. The settings on record: IPEC-J2 cells after coculture with E. coli, treatment for 48 h, compared to non-treated cells, n = 6. On the procedure:
as §1
In general terms: In qPCR the cycle at which signal appears reflects the starting amount.

Series [5] concerns IL-8 mRNA expression. The series can be described thus: qPCR of IL-8 mRNA in IPEC-J2 cells cocultured with E. coli. It counts as cell-based, porcine. The settings on record: IPEC-J2 cells after coculture with E. coli, treatment for 48 h, compared to non-treated cells, n = 6. The method, then:
as §1

For series [6], the system named is IPEC-J2 cell monolayer. The series can be described thus: Transepithelial electrical resistance (TER) measurement. In kind it is cell-based, porcine. On the procedure:
To evaluate the barrier integrity of IPEC-J2 cells, the transepithelial resistance (TER) and was measured, and a permeability assay was performed. The initial TER was tested before the cells were seeded. IPEC-J2 cells were then seeded in a Transwell membrane insert ([…], 0.4 μm pore size, Corning) at a density of 7 × 10^5 cells/well. Then, 200 μL and 500 μL medium was added to the apical and basal compartments, respectively. Cecropin A (12.5 μg/mL) was added to the apical and basal compartments. The TER values were measured every day by using an ohm-meter fitted with chopstick electrodes (Millipore ESR-2; Burlington, MA, USA). Before each test, the plates were placed at room temperature for 30 min. The TER was calculated by using the following equation:TER (Ω·cm^2) = (TER − TERinitial) × 0.3

The subject of series [7] is IPEC-J2 cell monolayer. The series can be described thus: FITC-dextran paracellular permeability assay. In kind it is cell-based, porcine. The settings on record: 12.5 μg/mL; 48 h and 72 h; FITC-dextran 5 mg/mL apical, 2 h; fluorescence 480/520 nm; p < 0.05; n = 6. On the procedure: To evaluate the permeability of the monolayer intestinal cells, FITC-dextran was used. FITC-dextran (Sigma-Aldrich, St. Louis, MO, USA) was dissolved in PBS at 5 mg/mL. After the medium was discarded, 200 μL FITC-dextran was added to the apical compartment, and 500 μL PBS was added to the basal compartment and cultured for 2 h. Then, 100 μL liquid from each well was transferred to 96-well plates, and the […] was read at 480 nm excitation and 520 nm emission wavelengths. Then, the content of the FITC-dextran in the basal compartment was calculated using a standard curve.

Series [8] deals with ZO-1 protein expression. Put plainly: Western blotting of ZO-1. In kind it is cell-based, porcine. The note with it: IPEC-J2 cells, versus control group, n = 3. The method, then: (§2) The total protein was extracted with lysis buffer. The concentration of protein was tested by using a BCA protein assay kit (Thermo Scientific, Waltham, MA, USA) and mixed with 5× loading buffer. 20 μg protein sample was loaded in each well. The supernatant was then separated by 10% SDS-PAGE and transferred onto a PVDF membrane (Millipore, Burlington, MA, USA). After blocking with 5% skimmed milk powder, the membrane was incubated with the appropriate primary antibodies overnight at 4 °C, followed by incubation with a horseradish peroxidase (HRP)-conjugated secondary antibody for 2 h. Bands were detected using an ECL Western Blotting Substrate (Thermo Scientific, Waltham, MA, USA). Band intensity was quantified using ImageJ software. The primary antibodies including β-actin, p-MEk, MEK, p-ERK, ERK, CDX2 were purchased from Cell Signaling Technology (CST, Danvers, MA, USA).
For orientation: In western blotting, separated proteins are transferred to a membrane and probed.

For series [9], the system named is claudin-1 protein expression. The series can be described thus: Western blotting of claudin-1. The settings on record: IPEC-J2 cells, versus control group, n = 3. It counts as cell-based, porcine. On the procedure:
as §2

The test system of series [10] is occludin protein expression. The series can be described thus: Western blotting of occludin. The settings on record: IPEC-J2 cells, versus control group, n = 3. In kind it is cell-based, porcine. On the procedure:
as §2

For series [11], the system named is MEK phosphorylation. Put plainly: Western blotting of p-MEK/MEK. It counts as cell-based, porcine. The note with it: IPEC-J2 cells, versus control group, p < 0.01, n = 3. On the procedure: as §2
In series [12] the test system is ERK phosphorylation. The series can be described thus: Western blotting of p-ERK(1/2)/ERK(1/2). It counts as cell-based, porcine. The settings on record: IPEC-J2 cells, versus control group, p < 0.01, n = 3. On the procedure: as §2
For series [13], the system named is CDX2 protein level. The series can be described thus: Western blotting of CDX2. In kind it is cell-based, porcine. The note with it: IPEC-J2 cells, compared with control group, p < 0.001, n = 3. The method, then:
as §2

Series [14] has as its system ZO-1, claudin-1 and occludin membrane distribution. The series can be described thus: Cell immunofluorescence of tight junction proteins. In kind it is cell-based, porcine. The settings on record: IPEC-J2 cells, 400×, n = 3. The method, then:
(§3) To test the expression and location of tight junction proteins (ZO-1, occludin and claudin-1) and the cytoskeleton (F-actin), cell immunofluorescence was used. The IPEC-J2 cells were cultured and became confluent on the slide. After treatment, the cells were washed with PBS three times, fixed with 4% polyoxymethylene for 30 min, and then washed by PBS again three times. For F-actin staining, 0.5% Triton X-100 was added for 20 min. After that, 0.5% bovine serum albumin was added for 1 h, and then the primary antibodies were added and incubated with the cells at 4 °C overnight. The slides were then washed with PBST three times, and the FITC-labeled secondary antibody was added for 2 h. At last, the cell nuclei were stained by using DAPI (Santa Cruz Biotechnology, Dallas, TX, USA). The slides were then observed by using a fluorescence microscope. Primary antibodies including occludin (Abcam, Cambridge, UK), claudin-1 (CST, Danvers, MA, USA) and ZO-1 (Thermo Fisher Scientific, Waltham, MA, USA) were used. For staining F-actin, FITC-phalloidin (Sigma-Aldrich, St. Louis, MI, USA) was used.

Series [15] concerns F-actin polymerization. The series can be described thus: Cell immunofluorescence of F-actin (FITC-phalloidin). It counts as cell-based, porcine. The note with it: IPEC-J2 cells; FITC-phalloidin staining, 400×; n = 3. The method, then:
as §3

Series [16] has as its system IPEC-J2 cells. The note with it: MTT; 1.5–12.5 μg/mL, 8 h; compared to control group.
Description: IPEC-J2 cells were cultured at 37 °C in 100% humidity and 5% CO2 conditions with DMEM/F12 (Thermo, Waltham, MA, USA) supplemented with 5% fetal bovine serum (Gibco, Waltham, MA, USA) and 1% penicillin/streptomycin.
Thiazolyl blue tetrazolium bromide (MTT) was purchased from Sigma-Aldrich (St. Louis, MI, USA). The MTT was dissolved in PBS (5 mg/mL). The cytotoxicity of AMPs to IPEC-J2 cells was tested by using an MTT assay. A density of 1 × 10^5 cells in 180 μL medium per well was seeded in 96-well plates (Corning, New York, NY, USA), and then 20 μL AMPs was added. The final concentrations were 200, 100, 50, 25, 12.5, 6.25, 3.125, were 1.56 μg/mL. After 8 h culture, 20 μL MTT was added, and then the cells were continued to culture for 4 h. The supernatant was discarded, and 150 μL DMSO was added. After 30 min shaking at room temperature, the absorbance was measured at a wavelength of 490 nm. The cell viability was calculated by using the following equation:Cell viability = (ODControl − ODAMP)/ODControl × 100%

Turning to “KWKLFKKIEKVGQNIRDGIIKAGPAVAVVGQATQIAK-NH2 (C-terminus assumed) [cecropin A]”, the “antibacterial activity against E. coli, Salmonella typhimurium and Pseudomonas aeruginosa compared with Staphylococcus aureus” value in [1] was “much higher”. Moreover, the “E. coli adherence (CFU of adherent bacteria)” value in [2] (IPEC-J2 cells pretreated with 3.125, 6.25 and 12.5 μg/mL for 48 h) is given as “reduced E. coli adherence in a dose-dependent manner”. The “TNF-α mRNA expression” value in [3] was “downregulated”. Also, in [4], the “IL-6 mRNA expression” value is reported as “downregulated”. In series [5], the “IL-8 mRNA expression” value was “downregulated”. The TER values result in series [6] (IPEC-J2 monolayer on Transwell, 12.5 μg/mL apical and basal, at 48 h and 72 h, compared to control cells, p < 0.01, n = 6) is “significantly increased”; in series [6] (inhibitor experiment (Figure 5), 24 and 48 h, compared with control group, n = 3) it was “significantly higher”. The “permeability of the IPEC-J2 cell monolayer (4 kDa FITC-dextran in basal compartment)” value in series [7] is “reduces the permeability”. Besides, the ZO-1 protein level entry in series [8] is recorded as “significantly upregulated”. Besides, the claudin-1 protein level entry in series [9] is “significantly upregulated”. The occludin protein level result in series [10] is “significantly upregulated”. Besides, the MEK phosphorylation result in series [11] is “downregulates”. Besides, the ERK phosphorylation result in series [12] was “downregulates”. In addition, the CDX2 protein level entry in series [13] is recorded as “upregulated”. Moreover, the “membrane distribution of ZO-1, claudin-1 and occludin (TJs)” value in [14] is “much more polymerized at the cell–cell boundary”. The “F-actin polymerization / distribution” value in series [15] is reported as “much more polymerized at the cell–cell boundary”. Further, the IPEC-J2 cell viability result in [16] is reported as “not reduced”.
As for `O=C(NOCC1CC1)c1ccc(F)c(F)c1Nc1ccc(I)cc1Cl` [PD184352], the “adherence of E. coli” value in series [2] (IPEC-J2 cells, inhibitor 10 μM for 48 h, compared to cecropin A group) is “reduced”.

(Values after publication PMC6073479, “Cecropin A Modulates Tight Junction-Related Protein Expression and Enhances the Barrier Function of Porcine Intestinal Epithelial Cells by Suppressing the MEK/ERK Pathway” (International Journal of Molecular Sciences, 2018).)
